Results reported in patent publication US20060263444A1, “Antimicrobial composition” (priority 2005, published 2006).
Several values for one entry are separate records, joined by “and”; a condition that tells them apart may be missing. Identical values can stand only once. Like-named read-outs stand apart in the source and are kept apart here.

Columns and labels:
E. coli [1] = assay: Viable plate count after 24 hr incubation in trypticase soy broth culture; type: cell-based
Protocol: (§1) Sequential dilutions of the above two stock solutions were then prepared also in sterile saline. A portion of 0.05 ml of each dilution was added to 0.95 ml of bacterial culture (trypticase soy broth containing 10^6 CFU/ml). […] The test cultures were incubated at 37° C. for 24 hr, the total viable bacteria were numerated by plate count on Trypticase® soy agar (BBL) containing inactivating agent. The plates were incubated at 37° C. for 48 hr and reported as colony forming unit/ml (CFU/ml).

S. aureus [2] = type: cell-based
Protocol: as §1

[3] = rats; cited from earlier work
C. albicans [4] = assay: Zone of inhibition assay of coated sutures; type: cell-based; details: coated suture; 0.5% in coating solution; 37° C. 48 hr
S. aureus [5] = assay: Zone of inhibition assay of coated sutures; type: cell-based, Staphylococcus aureus; details: coated 2-0 polyglactin 910 suture; 0.5% in coating solution; 37° C. 48 hr
Protocol: (§2) The coating solutions were made by dissolving a L(−) lactide/glycolide copolymer containing 65 mole % lactide and 35 mole % glycolide (4.5%) and calcium stearate (4.5%) in ethyl acetate. […] The sutures were hand coated by dipping into the coating solution containing antimicrobial composition and then air dried at room temperature for 8 hr. […] A Petri dish was inoculated with about 10^5 cfu/suture and a portion of 20 ml of TSA tempered at 47° C. was added into the Petri dish. The inoculum was mixed thoroughly with the medium and the suture was placed in the middle of the Petri dish. The inoculated Petri dishes were incubated at 37° C. for 48 hr and then the zone of inhibition was measured with a digital caliper.
(§3) The zone of inhibition assay was performed against S. aureus and E. coli over a two-day period.

E. coli [6] = assay: Zone of inhibition assay of coated sutures; type: cell-based; details: coated suture; 0.5% in coating solution; 37° C. 48 hr
Protocol: as §2, §3

[7] = tested on: Staphylococcus aureus, E. coli and C. albicans; assay: Zone of inhibition assay of coated sutures, summary in text; type: cell-based; details: coated suture
Protocol: as §2, §3

P. aeruginosa = assay: Viable plate count after 24 hr incubation in trypticase soy broth culture; type: cell-based
Protocol: as §1

E. faecium = assay: as above; type: cell-based
Protocol: as §1

C. albicans [8] = assay: as above; type: cell-based
Protocol: as §1

[9] = animals and humans; cited from earlier work
[10] = single agent 10 ppm, 37° C. 24 hr

In the case of `O=[N+]([O-])[O-].[Ag+]` [AgNO3, silver nitrate], the “CFU/ml E. coli” value (E. coli [1]; Table 2, single agent 10 ppm) is reported as 1.2 × 10^9 CFU/ml, the “CFU/ml E. coli” value (E. coli [1]; Table 2, single agent 20 ppm) is reported as 1.0 × 10^8 CFU/ml and the “CFU/ml S. aureus” value (S. aureus [2]; Table 2, single agent 10 ppm) is reported as 9.3 × 10^8 CFU/ml. For the same compound, the “CFU/ml S. aureus” value (S. aureus [2]; Table 2, single agent 20 ppm) was 2.2 × 10^8 CFU/ml.
In the case of `CCCCCCCCCCCC(=O)N[C@@H](CCCN=C(N)N)C(=O)OCC.Cl` [LAE, ethyl ester of the lauramide of the arginine monohydrochloride], the absorption and metabolism [3] is listed as “fast absorption and metabolism into naturally-occurring amino acids and the lauric acid”, the “Zone of inhibition(mm) C. albicans” value (C. albicans [4]) is listed as 0 mm and the “Zone of inhibition(mm) S. aureus” value (S. aureus [5]) is listed as 0 mm. The “Zone of inhibition(mm) E. coli” value (E. coli [6]) was 0 mm, the “zone of inhibition” value [7] was “no zones of inhibition” and the “reduction of viable bacteria compared to the control, E. coli” value (E. coli [1]) was “no inhibition”. The “CFU/ml E. coli” value (E. coli [1]; monohydrochloride) was 1.0 × 10^9 CFU/ml and 1.1 × 10^9 CFU/ml, the “reduction of viable bacteria compared to the control, P. aeruginosa” value (P. aeruginosa; alone at 10 ppm) was “no inhibition” and the “CFU/ml P. aeruginosa” value (P. aeruginosa; [10]) was 1.0 × 10^9 CFU/ml. The “reduction of viable bacteria compared to the control, E. faecium” value (E. faecium; alone at 10 ppm) was < 2 log, the “CFU/ml E. faecium” value (E. faecium; [10]) was 5.0 × 10^7 CFU/ml and the “reduction of viable bacteria compared to the control, C. albicans” value (C. albicans [8]; alone at 10 ppm) was < 2 log. For the same compound, the “CFU/ml C. albicans” value (C. albicans [8]; [10]) was 6.0 × 10^7 CFU/ml, the toxicological finding [9] was “completely harmless to animals and humans” and the “CFU/ml S. aureus” value (S. aureus [2]) was 6.4 × 10^8 CFU/ml.
